In assay [1] the target is Peroxisome proliferator-activated receptor gamma/Nuclear receptor coactivator 2 (Homo sapiens, UniProt P37231). The assay is classed as functional.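 Further: agonist potency for raising coactivator recruitment to the receptor.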
In assay [2] the target is Peroxisome proliferator-activated receptor gamma/Nuclear receptor coactivator 1 (Homo sapiens, UniProt P37231). The assay is classed as functional.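 Further: agonist potency as compounds enhance coactivator SRC-1 recruitment to PPARgamma.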
Assay [3] addresses Peroxisome proliferator-activated receptor gamma/Nuclear receptor coactivator 3 (Homo sapiens, UniProt P37231). The class given is functional.
The target in assay [4] is T1, NADPH oxidase 1 (Homo sapiens, UniProt Q9Y5S8).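 Further: Cell-based assay with luminescence read-out, IC50 derived from inhibitor dose-response curves; intracellular ROS from endogenous NOX1 in intact HT29 colon cancer cells; potency of inhibitors that lower the ROS luminescence signal.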
T1 sequence (Q9Y5S8 whole entry): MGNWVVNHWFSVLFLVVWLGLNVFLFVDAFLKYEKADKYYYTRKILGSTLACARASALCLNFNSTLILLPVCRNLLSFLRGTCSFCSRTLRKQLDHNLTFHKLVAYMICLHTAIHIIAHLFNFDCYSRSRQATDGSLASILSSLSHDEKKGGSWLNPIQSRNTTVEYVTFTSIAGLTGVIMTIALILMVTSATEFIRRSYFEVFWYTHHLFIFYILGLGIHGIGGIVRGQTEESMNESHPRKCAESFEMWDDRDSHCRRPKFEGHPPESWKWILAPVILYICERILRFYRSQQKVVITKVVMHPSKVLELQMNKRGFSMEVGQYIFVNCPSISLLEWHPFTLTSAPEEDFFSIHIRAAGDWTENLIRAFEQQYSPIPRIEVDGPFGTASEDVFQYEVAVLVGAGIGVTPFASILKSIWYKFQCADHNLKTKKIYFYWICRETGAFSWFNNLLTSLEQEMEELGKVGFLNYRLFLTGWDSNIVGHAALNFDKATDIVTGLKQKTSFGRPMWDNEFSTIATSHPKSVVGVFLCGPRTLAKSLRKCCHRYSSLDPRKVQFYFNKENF
The class given is functional, cell-based.

Assay [5] addresses Beta-2 adrenergic receptor (Homo sapiens, UniProt P07550). The assay can be described thus: ADRB2 activation measured by internalization – cell-based, FAP fluorogen, flow cytometry, cherry pick 1, dose response (AID 588763). The class given is functional. A general note: In flow cytometry, cells or beads pass a laser one at a time.
Assay [6] addresses T2, Bcl-2-like protein 10 (Homo sapiens, UniProt Q9HD36).
T2 sequence (Q9HD36 whole entry): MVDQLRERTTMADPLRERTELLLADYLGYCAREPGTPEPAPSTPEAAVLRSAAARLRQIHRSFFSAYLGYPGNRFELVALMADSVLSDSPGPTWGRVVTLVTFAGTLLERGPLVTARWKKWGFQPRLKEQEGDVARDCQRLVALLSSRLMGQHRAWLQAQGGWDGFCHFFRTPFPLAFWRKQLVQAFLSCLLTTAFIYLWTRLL
The assay can be described thus: Concentration-response of Bcl-B inhibitors by biochemical FP with TR3 (AID 1243). The class given is functional.

For assay [7], the target named is T3, Estrogen receptor beta (Homo sapiens, UniProt Q92731).
Assay [8] addresses T3, Estrogen receptor beta. Briefly: blockers of SRC-3 recruitment to ERβ – biochemical, ELISA, streptavidin-HRP readout, orthogonal assay, confirmation (AID 1060).
Assay [9] can be described thus: Luminescence Cell-Based Dose Confirmation HTS to Identify Inhibitors of Polyadenylation. The class given is functional.
The target in assay [10] is T4, Corticotropin-releasing factor receptor 2/Corticotropin-releasing factor-binding protein (Homo sapiens, UniProt P24387+Q13324).
T4 sequence (Q13324 whole entry): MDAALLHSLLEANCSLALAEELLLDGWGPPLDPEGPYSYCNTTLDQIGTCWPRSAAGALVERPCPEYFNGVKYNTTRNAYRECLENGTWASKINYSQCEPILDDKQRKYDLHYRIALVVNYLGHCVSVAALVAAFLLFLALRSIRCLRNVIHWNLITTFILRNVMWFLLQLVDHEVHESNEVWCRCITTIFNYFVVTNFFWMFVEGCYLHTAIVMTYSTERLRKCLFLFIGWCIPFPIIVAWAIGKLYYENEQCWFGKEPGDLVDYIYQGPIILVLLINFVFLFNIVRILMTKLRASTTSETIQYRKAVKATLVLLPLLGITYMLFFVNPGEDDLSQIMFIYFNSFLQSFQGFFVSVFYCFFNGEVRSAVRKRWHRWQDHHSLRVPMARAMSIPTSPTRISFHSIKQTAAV
T4 sequence (P24387 whole entry): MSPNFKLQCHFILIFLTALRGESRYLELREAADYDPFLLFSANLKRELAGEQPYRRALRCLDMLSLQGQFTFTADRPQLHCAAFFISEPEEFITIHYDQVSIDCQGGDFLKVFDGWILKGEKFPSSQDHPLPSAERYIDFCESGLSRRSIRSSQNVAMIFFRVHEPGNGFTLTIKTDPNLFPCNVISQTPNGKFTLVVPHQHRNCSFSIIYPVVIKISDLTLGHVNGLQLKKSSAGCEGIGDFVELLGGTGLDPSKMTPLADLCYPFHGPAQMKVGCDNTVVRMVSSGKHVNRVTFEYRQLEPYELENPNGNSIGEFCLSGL
Briefly: activators of CRF receptor 2 with binding protein – uHTS hits, confirmation (AID 602473). The assay is classed as functional. The following applies: read-out: EC50_Mean.

Assay [11] can be described thus: viability of PTEN-deleted HCT116 cells – cell-based, HCT116 PTEN knockout, dose response (AID 1047).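 Further: HCT116 colon tumor cells with PTEN knocked out; cells exposed to compound for 60 hours before readout; potency for loss of cell viability measured by luminescence.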 The class given is functional.
Assay [12] is described as follows: viability of HCT116 lacking mutant beta-catenin – cell-based, human colon tumor, dose response (AID 1045).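 Further: HCT116 colon tumor cells with beta catenin knocked out; cells exposed to compound for 60 hours.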 The assay is classed as functional.
Assay [13] concerns the target Scavenger receptor class B member 1 (Mus musculus, UniProt Q61009). The assay can be described thus: mouse SR-BI DiI-HDL uptake blockers – ldlA[mSR-BI] cells, fluorescence, cherry pick, dose response (AID 493194).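 Further: cellular uptake of fluorescent DiI-labeled HDL measured as cell fluorescence.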 The class given is functional, cell-based.
Assay [14] can be described thus: reduction of Shn3 3'UTR-driven luciferase in osteoblasts – cell-based, Clone20 osteoblasts, firefly luciferase, cherry-picked, dose response (AID 624132).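 Further: firefly luciferase luminescence from reporter carrying the Shn3 3'UTR in osteoblasts.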 The class given is functional.
A short description of assay [15]: loss of viability in HepG2 cells – cell-based, CellTiter-Glo, cherry-picked, cytotoxicity control for Shn3 inhibitor project, dose response (AID 624134). The class given is functional.
The nature of assay [16]: non-specific 3'UTR reporter inhibition in Clone20-Shn3RL – cell-based, Renilla luciferase, cherry-picked, counter-screen for Shn3 inhibitor project, dose response (AID 624133). The class given is functional. (A counterscreen serves to expose hits that act by an unwanted route or on another target.)
Assay [17] deals with T5, Tyrosine-protein phosphatase non-receptor type 7 (Homo sapiens, UniProt P35236).
T5 sequence (P35236 whole entry): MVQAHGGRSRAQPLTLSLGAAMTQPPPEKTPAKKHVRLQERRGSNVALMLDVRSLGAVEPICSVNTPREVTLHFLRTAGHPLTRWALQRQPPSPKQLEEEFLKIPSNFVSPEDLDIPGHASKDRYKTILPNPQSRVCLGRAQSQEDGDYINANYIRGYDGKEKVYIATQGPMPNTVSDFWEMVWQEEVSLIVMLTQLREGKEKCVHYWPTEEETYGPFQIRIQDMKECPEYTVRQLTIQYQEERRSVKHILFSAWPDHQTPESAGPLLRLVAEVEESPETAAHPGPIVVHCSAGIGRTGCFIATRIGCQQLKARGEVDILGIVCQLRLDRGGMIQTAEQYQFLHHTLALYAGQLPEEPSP
The class given is functional.

Assay [18] concerns the target Glyceraldehyde-3-phosphate dehydrogenase (Homo sapiens, UniProt P04406).
Assay [19] concerns the target T6, Dual specificity protein phosphatase 6 (Rattus norvegicus, UniProt Q64346).
T6 sequence (Q64346 whole entry): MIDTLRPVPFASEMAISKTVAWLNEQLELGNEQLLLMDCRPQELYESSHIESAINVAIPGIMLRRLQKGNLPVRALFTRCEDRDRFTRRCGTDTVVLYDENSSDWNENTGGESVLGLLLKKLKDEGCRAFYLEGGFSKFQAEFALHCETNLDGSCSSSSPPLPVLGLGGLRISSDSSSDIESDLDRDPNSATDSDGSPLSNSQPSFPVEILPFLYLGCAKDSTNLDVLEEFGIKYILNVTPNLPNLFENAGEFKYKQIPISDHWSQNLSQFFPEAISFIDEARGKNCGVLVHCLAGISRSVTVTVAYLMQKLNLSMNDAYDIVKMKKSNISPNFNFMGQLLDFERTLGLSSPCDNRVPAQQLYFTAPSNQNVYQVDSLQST

Assay [20] addresses T6, Dual specificity protein phosphatase 6. The class given is functional.
The target of assay [21] is Mucolipin-3 (Homo sapiens, UniProt Q8TDD5). The assay can be described thus: Dose response cell-based high-throughput screening assay for agonists of the transient receptor potential channel ML3 (TRPML3). [Related pubchem assays: 1526, 1424, 1448 ]. The class given is functional.
Assay [22] addresses Ion channel NompC (Danio rerio, UniProt Q7T1G6). Briefly: Fluorescence counterscreen assay for TRPML3 agonists: dose response cell-based high-throughput screening assay to identify agonists of the transient receptor potential channel N1 (TRPN1). [Related pubchem assays: 1526, 1424, 1448 ]. The class given is functional.
The target of assay [23] is T7, Estrogen receptor (Homo sapiens, UniProt P03372).
T7 sequence (P03372 whole entry): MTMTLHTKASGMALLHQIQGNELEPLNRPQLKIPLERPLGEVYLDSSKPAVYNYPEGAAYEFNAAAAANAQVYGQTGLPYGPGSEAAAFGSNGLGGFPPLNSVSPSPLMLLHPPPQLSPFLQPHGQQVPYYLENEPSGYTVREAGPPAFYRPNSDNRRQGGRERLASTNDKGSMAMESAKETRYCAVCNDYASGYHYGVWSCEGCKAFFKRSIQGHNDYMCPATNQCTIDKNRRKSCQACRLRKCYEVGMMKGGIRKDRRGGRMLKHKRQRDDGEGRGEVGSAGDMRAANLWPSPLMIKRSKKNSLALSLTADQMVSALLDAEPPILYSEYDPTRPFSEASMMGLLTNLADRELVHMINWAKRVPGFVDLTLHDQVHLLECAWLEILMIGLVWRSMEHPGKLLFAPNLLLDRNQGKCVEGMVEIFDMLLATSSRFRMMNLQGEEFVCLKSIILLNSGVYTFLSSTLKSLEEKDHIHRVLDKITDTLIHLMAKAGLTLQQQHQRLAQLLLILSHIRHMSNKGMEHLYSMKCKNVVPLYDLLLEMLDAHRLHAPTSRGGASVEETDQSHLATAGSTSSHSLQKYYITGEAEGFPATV

In assay [24] the target is Melanocortin receptor 4 (Homo sapiens, UniProt P32245). The class given is functional, cell-based.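 Further: Cell-based assay with luminescence read-out, confirmatory dose-response testing for agonist activity of biased ligands at MC4R; human U2OS cells with tagged receptor and beta-arrestin; potency of agonists that increase receptor coupling to beta-arrestin.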

Activity calls are given as the source filed them.

T3 sequence (Q92731 whole entry): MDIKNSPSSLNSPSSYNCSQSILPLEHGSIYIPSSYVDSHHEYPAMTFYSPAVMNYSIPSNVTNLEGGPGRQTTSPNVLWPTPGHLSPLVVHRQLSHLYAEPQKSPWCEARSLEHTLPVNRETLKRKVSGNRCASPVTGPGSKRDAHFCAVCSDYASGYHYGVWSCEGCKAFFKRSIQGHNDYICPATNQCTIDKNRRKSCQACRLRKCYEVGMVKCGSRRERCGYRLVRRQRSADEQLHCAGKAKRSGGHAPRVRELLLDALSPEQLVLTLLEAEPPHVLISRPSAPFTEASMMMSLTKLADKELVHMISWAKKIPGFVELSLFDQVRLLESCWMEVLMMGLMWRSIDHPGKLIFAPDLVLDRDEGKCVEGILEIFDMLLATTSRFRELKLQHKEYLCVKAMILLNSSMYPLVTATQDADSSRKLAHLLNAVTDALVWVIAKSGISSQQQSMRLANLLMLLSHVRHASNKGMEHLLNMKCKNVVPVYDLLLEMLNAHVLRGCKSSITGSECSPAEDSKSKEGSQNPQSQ
Scavenger receptor class B member 1, sequence (Q61009 whole entry): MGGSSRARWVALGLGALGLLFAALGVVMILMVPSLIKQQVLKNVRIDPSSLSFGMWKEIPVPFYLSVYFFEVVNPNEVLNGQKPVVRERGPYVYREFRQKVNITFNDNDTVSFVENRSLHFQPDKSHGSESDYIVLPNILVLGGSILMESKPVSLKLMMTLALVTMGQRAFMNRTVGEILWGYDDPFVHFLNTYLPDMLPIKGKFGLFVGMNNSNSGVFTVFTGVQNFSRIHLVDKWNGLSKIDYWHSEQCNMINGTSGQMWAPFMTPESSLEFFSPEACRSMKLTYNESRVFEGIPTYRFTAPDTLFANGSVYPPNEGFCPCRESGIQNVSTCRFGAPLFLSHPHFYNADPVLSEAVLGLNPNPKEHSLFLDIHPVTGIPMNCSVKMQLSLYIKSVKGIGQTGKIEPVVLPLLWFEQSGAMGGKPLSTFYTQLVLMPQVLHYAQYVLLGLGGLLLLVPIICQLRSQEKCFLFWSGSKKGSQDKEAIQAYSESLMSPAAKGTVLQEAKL
Mucolipin-3, sequence (Q8TDD5 whole entry): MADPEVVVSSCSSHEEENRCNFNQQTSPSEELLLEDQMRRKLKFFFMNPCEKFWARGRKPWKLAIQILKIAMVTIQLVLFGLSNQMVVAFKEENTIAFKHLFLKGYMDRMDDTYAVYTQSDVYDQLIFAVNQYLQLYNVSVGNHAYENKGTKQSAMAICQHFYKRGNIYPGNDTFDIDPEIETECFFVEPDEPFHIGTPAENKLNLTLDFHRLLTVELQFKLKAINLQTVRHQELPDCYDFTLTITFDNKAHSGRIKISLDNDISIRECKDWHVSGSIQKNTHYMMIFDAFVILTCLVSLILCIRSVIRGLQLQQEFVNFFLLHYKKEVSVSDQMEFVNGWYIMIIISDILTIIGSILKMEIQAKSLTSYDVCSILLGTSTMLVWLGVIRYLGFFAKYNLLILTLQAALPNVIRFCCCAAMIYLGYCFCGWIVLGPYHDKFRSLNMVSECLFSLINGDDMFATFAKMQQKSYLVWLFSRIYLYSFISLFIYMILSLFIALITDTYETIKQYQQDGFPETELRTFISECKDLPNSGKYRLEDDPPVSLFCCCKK
Ion channel NompC, sequence (Q7T1G6 whole entry): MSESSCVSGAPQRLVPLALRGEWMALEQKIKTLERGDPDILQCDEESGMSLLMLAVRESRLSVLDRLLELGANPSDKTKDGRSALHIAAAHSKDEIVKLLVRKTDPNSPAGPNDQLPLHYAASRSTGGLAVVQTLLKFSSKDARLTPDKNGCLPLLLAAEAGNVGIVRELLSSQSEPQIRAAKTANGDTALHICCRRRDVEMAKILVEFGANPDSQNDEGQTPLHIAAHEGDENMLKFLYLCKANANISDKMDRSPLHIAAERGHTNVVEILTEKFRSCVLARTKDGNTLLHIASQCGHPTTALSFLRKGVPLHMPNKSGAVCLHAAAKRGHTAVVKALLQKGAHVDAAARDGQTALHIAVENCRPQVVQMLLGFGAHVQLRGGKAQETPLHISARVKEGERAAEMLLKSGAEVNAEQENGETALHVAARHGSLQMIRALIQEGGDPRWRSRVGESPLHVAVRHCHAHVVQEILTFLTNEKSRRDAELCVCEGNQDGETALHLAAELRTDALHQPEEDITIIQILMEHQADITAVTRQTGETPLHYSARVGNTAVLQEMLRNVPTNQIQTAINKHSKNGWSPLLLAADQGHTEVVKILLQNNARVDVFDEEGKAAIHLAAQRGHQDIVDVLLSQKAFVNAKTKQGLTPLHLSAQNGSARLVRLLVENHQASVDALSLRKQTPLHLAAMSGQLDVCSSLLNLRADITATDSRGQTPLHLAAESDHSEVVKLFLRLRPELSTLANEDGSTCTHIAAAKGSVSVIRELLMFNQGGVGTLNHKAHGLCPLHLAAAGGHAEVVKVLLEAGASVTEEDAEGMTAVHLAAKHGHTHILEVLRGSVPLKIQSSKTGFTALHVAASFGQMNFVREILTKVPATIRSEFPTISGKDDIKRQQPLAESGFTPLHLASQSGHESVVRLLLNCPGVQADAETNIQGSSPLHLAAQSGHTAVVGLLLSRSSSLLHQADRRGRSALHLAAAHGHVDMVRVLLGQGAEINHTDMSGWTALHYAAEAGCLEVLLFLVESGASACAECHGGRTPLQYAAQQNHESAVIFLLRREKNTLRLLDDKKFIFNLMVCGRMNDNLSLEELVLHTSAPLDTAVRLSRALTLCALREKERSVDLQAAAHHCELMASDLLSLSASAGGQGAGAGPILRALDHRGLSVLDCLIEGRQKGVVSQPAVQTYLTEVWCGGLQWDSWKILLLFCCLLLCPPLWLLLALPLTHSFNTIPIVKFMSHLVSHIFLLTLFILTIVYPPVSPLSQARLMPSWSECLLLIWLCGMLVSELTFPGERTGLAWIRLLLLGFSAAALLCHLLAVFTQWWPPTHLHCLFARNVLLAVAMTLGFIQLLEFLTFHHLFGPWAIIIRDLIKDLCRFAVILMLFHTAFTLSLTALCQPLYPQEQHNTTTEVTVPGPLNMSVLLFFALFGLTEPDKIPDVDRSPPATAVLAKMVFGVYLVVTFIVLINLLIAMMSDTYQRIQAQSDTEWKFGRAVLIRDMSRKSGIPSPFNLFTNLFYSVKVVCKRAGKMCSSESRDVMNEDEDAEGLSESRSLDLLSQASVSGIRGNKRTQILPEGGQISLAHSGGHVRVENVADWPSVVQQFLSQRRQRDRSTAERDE
Glyceraldehyde-3-phosphate dehydrogenase, sequence (P04406 whole entry): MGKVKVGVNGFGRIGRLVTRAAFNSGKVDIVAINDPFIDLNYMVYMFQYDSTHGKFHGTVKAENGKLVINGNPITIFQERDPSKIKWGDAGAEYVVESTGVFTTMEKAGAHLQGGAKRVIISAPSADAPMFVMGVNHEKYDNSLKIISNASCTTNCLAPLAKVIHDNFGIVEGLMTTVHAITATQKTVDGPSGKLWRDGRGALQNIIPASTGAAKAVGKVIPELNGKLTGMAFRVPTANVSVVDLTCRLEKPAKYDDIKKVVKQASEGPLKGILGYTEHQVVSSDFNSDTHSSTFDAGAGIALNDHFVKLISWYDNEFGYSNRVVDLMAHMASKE
Melanocortin receptor 4, sequence (P32245 whole entry): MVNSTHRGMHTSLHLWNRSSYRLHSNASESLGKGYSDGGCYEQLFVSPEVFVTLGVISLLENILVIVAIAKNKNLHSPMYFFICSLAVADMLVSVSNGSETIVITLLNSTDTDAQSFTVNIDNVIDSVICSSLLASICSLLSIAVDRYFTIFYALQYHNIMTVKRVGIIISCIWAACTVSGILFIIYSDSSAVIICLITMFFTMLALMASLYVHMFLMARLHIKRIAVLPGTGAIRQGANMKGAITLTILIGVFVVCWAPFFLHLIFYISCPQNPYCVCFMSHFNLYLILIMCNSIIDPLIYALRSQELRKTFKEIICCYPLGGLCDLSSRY
Beta-2 adrenergic receptor, sequence (P07550 whole entry): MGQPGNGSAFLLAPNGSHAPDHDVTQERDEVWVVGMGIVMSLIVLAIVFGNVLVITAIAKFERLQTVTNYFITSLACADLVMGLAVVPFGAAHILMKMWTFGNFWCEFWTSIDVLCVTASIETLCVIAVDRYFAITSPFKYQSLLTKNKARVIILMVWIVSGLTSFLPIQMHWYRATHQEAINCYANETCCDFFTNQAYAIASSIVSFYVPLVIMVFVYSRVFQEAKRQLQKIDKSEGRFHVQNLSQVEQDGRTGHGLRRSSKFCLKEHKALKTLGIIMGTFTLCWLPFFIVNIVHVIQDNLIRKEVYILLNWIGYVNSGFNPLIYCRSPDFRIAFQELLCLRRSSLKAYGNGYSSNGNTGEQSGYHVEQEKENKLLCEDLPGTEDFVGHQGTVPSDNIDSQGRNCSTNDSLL

For the molecule `COc1cc(C(=S)N2CCOCC2)cc(OC)c1OC(=O)c1cc([N+](=O)[O-])c(C)c([N+](=O)[O-])c1`, the EC50 in [1], in assay [2] and in assay [3] was > 79.4 µM (not active) in each case.
The IC50 is the concentration that inhibits the measured activity by half. For `O=C(Cc1ccccc1)NNC(=O)Cc1ccccc1`, the IC50 in [4] was > 17 µM (not active).
For the molecule `CCCCCCN1C(=O)NC(=O)/C(=C\Nc2c(C)n(C)n(-c3ccccc3)c2=O)C1=O`, the EC50 is > 79.4 µM (not active) in assay [1], > 79.4 µM (not active) in [2], > 79.4 µM (not active) in [3] and 1.31 µM (active) in assay [5].
Consider `Cc1cc(C)nc(/N=C(\N)Nc2cccc(N)c2)n1`, for which, in [6], the EC50 was 5.45 µM (active).
On to `c1ccc(-c2nnc3sc(Cc4cccs4)nn23)cc1`, for which the figures for the IC50 in [7] and in assay [8] were 21.6 µM (active) and > 109 µM (not active), respectively.
As to `O=C1C=CC2=C3Oc4c(ccc5cc(O)ccc45)C(c4ccccc4C(=O)O)C3C=CC2=C1` (stereo not drawn), the EC50 in assay [6] is 1.68 µM (active).
For the molecule `C/C(=C\C=C(C#N)C#N)c1cc(C#N)c(N)o1`, the EC50 was 11.1 µM (active) in [9] and 5.13 µM (active) in [10].
One may read the AC50 as the concentration giving half of the maximal activity seen. Take `O=C(Nc1ccc(Cl)c(Cl)c1)Nc1ccc(N2CCCC2)c(S(=O)(=O)Nc2ccccc2Cl)c1`: the EC50 was 3.35 µM (active) in assay [11] and 3.8 µM (active) in assay [12]. Besides, the AC50 is 12.7 µM (active) in assay [13], 5.13 µM (active) in assay [14], 27 µM (active) in [15] and 11.4 µM (active) in assay [16].
For the molecule `CCCCCCCCCCCCCCCCCCC#CCCCCCCCCCCCC(=O)O`, the IC50 in assay [17] was 28.3 µM (active); in assay [18], > 100 µM (not active); in assay [19] it was > 100 µM (inactive); in [20], > 100 µM (inactive).
Turning to `Cn1c(=O)n(-c2ccc(Cl)cc2)c(=O)n([C@@H](Cc2ccccc2)C(N)=O)c1=O`, the IC50 in assay [17] was > 100 µM (not active); in [18] it was > 100 µM (not active); in [19], > 100 µM (inactive); in assay [20], > 100 µM (inactive).
Take `Cc1ccc(S(=O)(=O)N2C(=S)SCC2(C)C)cc1`: the EC50 in assay [21] was 7.22 µM (active); in assay [22], > 29.9 µM (not active).
The corresponding values for `CCOc1ccccc1N1CCN(S(=O)(=O)c2ccc(Cl)s2)CC1` are 8.16 µM (active) and > 29.9 µM (not active).
In the case of `O=C(NNC(=O)c1cc(Br)ccc1O)c1csc(N2CCOCC2)n1`, in assay [13], the AC50 was 2.75 µM (active).
In the case of `CCN1C(=O)/C(=C2/Sc3ccc(OC)cc3N2C)S/C1=N\c1cccc(O)c1`, the values for the IC50 in assay [23], in assay [7] and in assay [8] were > 50 µM (not active), > 50 µM (not active) and 0.0604 µM (not active), respectively. Also, the EC50 in assay [24] was > 89.2 µM (inactive).
In the case of `CN(C)CCCN1c2ccccc2Sc2ccc(Cl)cc21` [CHLORPROMAZINE], the IC50 in assay [4] was > 17 µM (not active).

The record behind these values is ChEMBL document CHEMBL1201862, “PubChem BioAssay data set” (2004).
